Experiment: xn = mol fraction of the nth substance listed
Settings: for electrical conductivity: frequency 0.01 MHz

CCCC[n+]1ccn(C)c1.F[P-](F)(F)(F)(F)F + C1CCOC1
Settings | viscosity [mPa·s]
298.15 K, 101 kPa, x2 = 0.195 | 91

CC#N + C=C[n+]1ccn(CC(N)=O)c1.O=S(=O)([N-]S(=O)(=O)C(F)(F)F)C(F)(F)F
Settings | viscosity [mPa·s]
323.15 K, 100 kPa, x2 = 0 | 0.262

CCCC[n+]1ccn(C)c1.O=S(=O)([N-]S(=O)(=O)C(F)(F)F)C(F)(F)F + CC1CC(=O)O1
100 kPa, x1 = 1
Settings | electrical conductivity [S/m]
293.15 K | 0.337
298.15 K | 0.4
303.15 K | 0.472
308.15 K | 0.552
313.15 K | 0.64
318.15 K | 0.733
323.15 K | 0.835

CCCC[n+]1ccn(C)c1.O=S(=O)([N-]S(=O)(=O)C(F)(F)F)C(F)(F)F + CC1CCC(=O)O1
100 kPa, x1 = 1
Settings | electrical conductivity [S/m]
293.15 K | 0.337
298.15 K | 0.4
303.15 K | 0.472
308.15 K | 0.552
313.15 K | 0.64
318.15 K | 0.733
323.15 K | 0.835

CCCC[n+]1ccn(C)c1.O=S(=O)([N-]S(=O)(=O)C(F)(F)F)C(F)(F)F + CC1COC(=O)O1
101.3 kPa, x1 = 1
Settings | viscosity [mPa·s]
288.15 K | 80.3
308.15 K | 33.95
328.15 K | 17.98

CC[N+](CC)(CC)CC.F[B-](F)(F)F + CC1COC(=O)O1
101 kPa
Settings | viscosity [mPa·s]
283.15 K, x1 = 0.001044 | 3.574
283.15 K, x1 = 0.001302 | 3.581
283.15 K, x1 = 0.001888 | 3.591
283.15 K, x1 = 0.003069 | 3.625
283.15 K, x1 = 0.003925 | 3.642
283.15 K, x1 = 0.005619 | 3.663
283.15 K, x1 = 0.007445 | 3.702
283.15 K, x1 = 0.009039 | 3.739
283.15 K, x1 = 0.01054 | 3.769
283.15 K, x1 = 0.01391 | 3.835
283.15 K, x2 = 0.9206 | 5.439
283.15 K, x2 = 0.9274 | 5.243
283.15 K, x2 = 0.9419 | 4.842
283.15 K, x2 = 0.9434 | 4.813
283.15 K, x2 = 0.9551 | 4.515
283.15 K, x2 = 0.9624 | 4.356
283.15 K, x2 = 0.9701 | 4.177
298.15 K, x1 = 0.001682 | 2.557
298.15 K, x1 = 0.003455 | 2.58
298.15 K, x1 = 0.004813 | 2.598
298.15 K, x1 = 0.006017 | 2.613
298.15 K, x1 = 0.007139 | 2.628
298.15 K, x1 = 0.008167 | 2.641
298.15 K, x1 = 0.009079 | 2.657
298.15 K, x1 = 0.01102 | 2.68
298.15 K, x1 = 0.01252 | 2.701
298.15 K, x1 = 0.01813 | 2.774
298.15 K, x2 = 0.9206 | 3.716
298.15 K, x2 = 0.9283 | 3.58
298.15 K, x2 = 0.9528 | 3.189
298.15 K, x2 = 0.971 | 2.924
308.15 K, x1 = 0.001119 | 2.101
308.15 K, x1 = 0.003553 | 2.127
308.15 K, x1 = 0.005754 | 2.15
308.15 K, x1 = 0.006805 | 2.161
308.15 K, x1 = 0.007615 | 2.17
308.15 K, x1 = 0.008953 | 2.182
308.15 K, x1 = 0.01146 | 2.209
308.15 K, x1 = 0.01324 | 2.228
308.15 K, x2 = 0.9174 | 3.043
308.15 K, x2 = 0.9215 | 2.977
308.15 K, x2 = 0.9382 | 2.775
308.15 K, x2 = 0.9417 | 2.728
308.15 K, x2 = 0.9539 | 2.586
308.15 K, x2 = 0.9711 | 2.396
308.15 K, x2 = 0.9798 | 2.303
313.15 K, x1 = 0.00395 | 1.953
313.15 K, x1 = 0.004693 | 1.963
313.15 K, x1 = 0.005951 | 1.972
313.15 K, x1 = 0.00774 | 1.988
313.15 K, x1 = 0.009433 | 2.003
313.15 K, x1 = 0.01082 | 2.018
313.15 K, x2 = 0.9272 | 2.638
313.15 K, x2 = 0.9371 | 2.531
313.15 K, x2 = 0.9469 | 2.429
313.15 K, x2 = 0.9574 | 2.325
313.15 K, x2 = 0.9712 | 2.185
313.15 K, x2 = 0.9797 | 2.106
